Data: patent publication US8153651B2, “Amide derivatives as ion-channel ligands and pharmaceutical compositions and methods of using the same” (Evotec AG, priority 2007, dated 2012)
Read-outs that look alike come from different tables or passages of the source.

Target: T1, hVR1 (Homo sapiens, UniProt Q8NER1)
T1 construct: expressed in transfected cells; host or cells: T-REx System cell line (Invitrogen Cat# R710-07), called 'human keratinocyte cell line' and 'HEK 293 cells'; vector pcDNA5/TO (Invitrogen Cat# V1033-20); expression induced with doxycycline
Experiment: Calcium uptake assay (FLIPR), inhibition of agonist-induced calcium influx in cells expressing hVR1
Type: cell-based
Conditions: cells expressing human VR1, 2 or 30 min pre-incubation
Description: The syntheses of these representative compounds were carried out in accordance with the methods set forth above, and activity of the compounds was measured by percent inhibition in a calcium uptake assay, the details of which are described below.
Functional activity of compounds against the VR1 receptor was determined by measuring changes in intracellular calcium in HEK 293 cells expressing hVR1. Compounds were examined for their ability to inhibit agonist-induced calcium influx. Relative levels of [Ca^2+] were monitored in a 96-well format using a calcium-sensitive fluorescence dye and a FLIPR TETRA, Molecular Devices.
Cells that express high levels of VR1 were obtained by generation of a cell line from human keratinocytes with heterologous expression of VR1 under control of an inducible promoter. Specifically, cells expressing human VR1 under the control of the human cytomegalovirus immediate-early (CMV) promoter and two tetracycline operator 2 (TetO2) sites were made using the T-REx System (Invitrogen, Carlsbad, Calif., USA). Details and methods concerning this system are published (Hum. Gene Ther. 9, pp. 1939-1950, 1998; Annu. Rev. Microbiol. 48, pp. 345-369, 1994; Mol. Biol. 169, pp. 707-721, 1983). Human VR1 was subcloned into the T-REx System pcDNA5/TO vector (Invitrogen Cat# V1033-20) which was transfected into the T-REx System human keratinocyte cell line (Invitrogen Cat# R710-07) from which a stable cell line was established which expresses VR1 after induction by exposure to tetracycline or doxycycline (Hum. Gene Ther. 9, pp. 1939-1950, 1998; instructions that come with purchase of products noted above). Cells were maintained in a CO2 incubator (5% CO2) at 37° C. in culture medium containing DMEM with phenol red (Mediatech Cat #: 15-017-CV) supplemented with 10% heat-inactivated Fetal Bovine Serum, 5% Penicillin-streptomycin (Mediatech Cat #: 30-002-CI), 5% Glutamax® (L-Alanyl-L-Glutamine, Mediateach Cat #: 25-015-CI), 200 μg/ml hygromycin (Mediatech #:30-240-CR), 0.5 μg/ml blasticidin (Invitrogen #46-1120)).
For assay preparation, cells expressing human VR1 as described above were plated in 96-well plates (Becton Dickinson [BD] poly-D-lysine coated 96-well plates, cat#356692) at 55,000 cells per well in culture media (described above) that also contained 1 ug/ml doxycycline. Plated cells were then placed in an incubator (5% CO2) and incubated for 20-26 hours at 37° C., until the cells had grown to near confluency. Media was then aspirated from cells and 50 uL of dye-containing buffer (from Molecular Devices FLIPR Calcuim 4 Assay kit, cat# R8141) was added to each well. Cells were then left in the dark at room temperature for 1.5-2 hours. Cell plates were then placed in the FLIPR TETRA (Molecular Devices, CA, USA). Test compounds and agonists were added to wells using the liquid handling capability of the FLIPR TETRA. Calcuim responses of the cells were monitored by fluorescence readout of dye signal. Test compounds in saline (130 mM NaCl, 17 g/L sucrose, 1.8 g/L glucose, 8.8 mM HEPES, 3 mM KCl, 0.60 mM MgCl, 1.0 mM CaCl2; adjust to pH 7.4 using NaOH; 0.03% BSA added on the day of the experiment), or vehicle control in saline, were pre-incubated at the desired final concentrations in the dark at room temperature for 2 or 30 minutes with cells already containing the above mentioned dye buffer (dye solution was diluted 1:1 in culture wells with saline containing 2× the final concentration of test compound). […] Another agonist was protons via a low pH solution (saline solution described above plus 10 mM citric acid buffered to pH 5.7 with HCl instead of buffering to a neutral pH with NaOH as done for normal saline). Compounds were tested at various concentration ranges, depending upon potency of compound.

[1] = IC50 (nM) Capsaicin, agonist capsaicin at 10 nM or its EC50
[2] = agonist protons, low pH solution pH 5.7, read-out: IC50 (nM) Low pH
[3] = read-out: IC50 (nM) Capsaicin, agonist capsaicin at 10 nM or its EC50

T1 sequence (Q8NER1 whole entry): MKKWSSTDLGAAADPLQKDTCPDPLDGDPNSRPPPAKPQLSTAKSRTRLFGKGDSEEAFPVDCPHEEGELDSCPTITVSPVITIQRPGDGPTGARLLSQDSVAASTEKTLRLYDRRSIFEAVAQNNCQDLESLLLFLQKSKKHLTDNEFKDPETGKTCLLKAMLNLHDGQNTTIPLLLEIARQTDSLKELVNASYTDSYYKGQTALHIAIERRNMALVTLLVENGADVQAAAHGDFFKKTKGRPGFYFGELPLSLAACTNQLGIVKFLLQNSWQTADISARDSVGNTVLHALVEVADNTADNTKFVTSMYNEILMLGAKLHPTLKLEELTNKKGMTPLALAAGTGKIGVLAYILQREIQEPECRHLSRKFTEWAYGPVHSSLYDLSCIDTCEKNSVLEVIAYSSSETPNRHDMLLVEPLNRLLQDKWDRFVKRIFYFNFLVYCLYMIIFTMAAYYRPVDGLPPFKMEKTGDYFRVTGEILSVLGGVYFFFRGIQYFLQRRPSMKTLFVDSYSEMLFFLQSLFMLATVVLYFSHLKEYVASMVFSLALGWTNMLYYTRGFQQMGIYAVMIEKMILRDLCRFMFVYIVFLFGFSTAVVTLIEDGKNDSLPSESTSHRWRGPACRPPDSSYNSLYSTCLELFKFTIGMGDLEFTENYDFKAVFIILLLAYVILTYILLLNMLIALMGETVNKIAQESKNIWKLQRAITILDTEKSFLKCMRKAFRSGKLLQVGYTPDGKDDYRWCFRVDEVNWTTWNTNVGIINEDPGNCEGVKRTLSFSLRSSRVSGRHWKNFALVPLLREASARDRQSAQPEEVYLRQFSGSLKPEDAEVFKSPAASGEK

Compound | IC50 [1] | IC50 [2] | IC50 [3]
COC(C)(C)c1ccc2c(n1)CC[C@@H](C(=O)N[C@H](C)c1cc(C)c(NS(C)(=O)=O)cc1F)C2 (single isomer, unassigned) [Example 14] | 101 to 500 nM | 101 to 500 nM | –
Cc1cc([C@@H](C)NC(=O)[C@@H]2COc3cc(C(F)(F)F)ccc3O2)c(F)cc1NS(C)(=O)=O [Example 16, (S)—N—((R)-1-(2-fluoro-5-methyl-4-(methylsulfonamido)phenyl)ethyl)-6-(trifluoromethyl)-2,3-dihydrobenzo[b][1,4]dioxine-2-carboxamide] | 101 to 500 nM | – | –
Cc1cc([C@@H](C)NC(=O)[C@H]2CCc3nc(C4(C)OCCO4)ccc3C2)c(F)cc1NS(C)(=O)=O [Example 20, (S)—N—((R)-1-(2-fluoro-5-methyl-4-(methylsulfonamido)phenyl)ethyl)-2-(2-methyl-1,3-dioxolan-2-yl)-5,6,7,8-tetrahydroquinoline-6-carboxamide] | 101 to 500 nM | – | –
Cc1cc([C@@H](C)NC(=O)[C@H]2COc3ccc(C(F)(F)F)cc3O2)c(F)cc1NS(C)(=O)=O [Example 17, (R)—N—((R)-1-(2-fluoro-5-methyl-4-(methylsulfonamido)phenyl)ethyl)-7-(trifluoromethyl)-2,3-dihydrobenzo[b][1,4]dioxine-2-carboxamide] | < 100 nM | – | –
C[C@@H](NC(=O)[C@H]1COc2cc(C(F)(F)F)ccc2O1)c1ccc(NS(C)(=O)=O)c(F)c1 [Example 22, (R)-6-Trifluoromethyl-2,3-dihydrobenzo[1,4]dioxine-2-carboxylic acid [(R)-1-(3-fluoro-4-methanesulfonylaminophenyl)ethyl]amide] | < 100 nM | – | –
Cc1cc([C@@H](C)NC(=O)C2=Cc3cc(Cl)ccc3OC2)c(F)cc1NS(C)(=O)=O [Example 4] | < 100 nM | < 100 nM | –
Cc1cc([C@@H](C)NC(=O)C2CCc3nc(C(C)(C)C(F)(F)F)ccc3C2)c(F)cc1NS(C)(=O)=O (stereo partly drawn) [Example 8, N—((R)-1-(2-Fluoro-5-methyl-4-(methylsulfonamido)phenyl)ethyl)-2-(1,1,1-trifluoro-2-methylpropan-2-yl)-5,6,7,8-tetrahydroquinoline-6-carboxamide] | < 100 nM | – | –
Cc1cc([C@@H](C)NC(=O)C2CN(C)c3cc(C(F)(F)F)ccc3O2)c(F)cc1NS(C)(=O)=O (some centres unmarked) [Example 7] | < 100 nM | < 100 nM | –
Cc1cc([C@@H](C)NC(=O)[C@H]2CCc3nc(C(C)(C)C(F)(F)F)ccc3C2)c(F)cc1NS(C)(=O)=O [Example 10, (S)—N—((R)-1-(2-Fluoro-5-methyl-4-(methylsulfonamido)phenyl)ethyl)-2-(1,1,1-trifluoro-2-methylpropan-2-yl)-5,6,7,8-tetrahydroquinoline-6-carboxamide] | – | – | < 100 nM
C[C@@H](NC(=O)[C@H]1COc2cc(C(F)(F)F)ccc2O1)c1ccc(NS(C)(=O)=O)c(Cl)c1 [Example 23] | < 100 nM | – | –
COC(C)(C)c1ccc2c(n1)CC[C@H](C(=O)N[C@H](C)c1cc(C)c(NS(C)(=O)=O)cc1F)C2 (single isomer, unassigned) [Example 15] | < 100 nM | < 100 nM | –
Cc1cc([C@@H](C)NC(=O)C2COc3nc(C(F)(F)F)ccc3O2)c(F)cc1NS(C)(=O)=O (stereo partly drawn) [Example 21, 6-trifluoromethyl-2,3-dihydro[1,4]dioxino[2,3-b]pyridine-2-carboxylic acid [(R)-1-(2-fluoro-4-methanesulfonylamino-5-methylphenyl)ethyl]amide] | 101 to 500 nM | – | –
(R)—N—((R)-1-(2-fluoro-5-methyl-4-(methylsulfonamido)phenyl)ethyl)-6-(trifluoromethyl)-2,3-dihydrobenzo[b][1,4]dioxine-2-carboxamide [Example 18] | – | – | < 100 nM
Cc1cc([C@@H](C)NC(=O)C2COc3ccc(Cl)cc3C2)c(F)cc1NS(C)(=O)=O (some centres unmarked) [Example 6] | < 100 nM | < 100 nM | –
Cc1cc([C@@H](C)NC(=O)[C@@H]2CCc3nc(C(C)(C)C(F)(F)F)ccc3C2)c(F)cc1NS(C)(=O)=O [Example 9, (R)—N—((R)-1-(2-Fluoro-5-methyl-4-(methylsulfonamido)phenyl)ethyl)-2-(1,1,1-trifluoro-2-methylpropan-2-yl)-5,6,7,8-tetrahydroquinoline-6-carboxamide] | – | < 100 nM | –
Cc1cc([C@@H](C)NC(=O)C2CCc3ccccc3C2)c(F)cc1NS(C)(=O)=O (some centres unmarked) [Example 3, 1,2,3,4-Tetrahydronaphthalene-2-carboxylic acid f(r)-1-(2-fluoro-4-methanesulfonylamino-5-methylphenyl)ethylamide] | < 100 nM | 101 to 500 nM | –

More lines, now with the values ahead:

IC50 [1] | IC50 [2] | IC50 [3] | Compound
< 100 nM | – | – | Cc1cc([C@@H](C)NC(=O)C2CCc3nc(C(F)(F)F)ccc3C2)c(F)cc1NS(C)(=O)=O (stereo partly drawn) [Example 12, N—((R)-1-(2-Fluoro-5-methyl-4-(methylsulfonamido)phenyl)ethyl)-2-(trifluoromethyl)-5,6,7,8-tetrahydroquinoline-6-carboxamide]
< 100 nM | 101 to 500 nM | – | Cc1cc([C@@H](C)NC(=O)C2=Cc3ccccc3OC2)c(F)cc1NS(C)(=O)=O [Example 1, (R)—N-(1-(2-Fluoro-5-methyl-4-(methylsulfonamido)phenyl)ethyl)-2h-chromene-3-carboxamide]
101 to 500 nM | > 1000 nM | – | Cc1cc([C@@H](C)NC(=O)C2CCc3ccccc3O2)c(F)cc1NS(C)(=O)=O (some centres unmarked) [Example 2]
101 to 500 nM | – | – | Cc1cc([C@@H](C)NC(=O)C2CCc3nc(C(C)(C)O)ccc3C2)c(F)cc1NS(C)(=O)=O (stereo partly drawn) [Example 13, N—((R)-1-(2-fluoro-5-methyl-4-(methylsulfonamido)phenyl)ethyl)-2-(2-hydroxypropan-2-yl)-5,6,7,8-tetrahydroquinoline-6-carboxamide]
101 to 500 nM | > 1000 nM | – | COc1ccc2c(c1)CCC(C(=O)N[C@H](C)c1cc(C)c(NS(C)(=O)=O)cc1F)C2C (some centres unmarked) [Example 5]
101 to 500 nM | – | – | Cc1cc([C@@H](C)NC(=O)[C@@H]2COc3ccc(C(F)(F)F)cc3O2)c(F)cc1NS(C)(=O)=O [Example 19, (S)—N—((R)-1-(2-fluoro-5-methyl-4-(methylsulfonamido)phenyl)ethyl)-7-(trifluoromethyl)-2,3-dihydrobenzo[b][1,4]dioxine-2-carboxamide]
101 to 500 nM | – | – | COc1ccc2c(c1)CCC(C(=O)NC(C)c1cc(C)c(NS(C)(=O)=O)cc1F)C2 (centres unmarked) [Example 11, 6-Methoxy-1,2,3,4-tetrahydro-naphthalene-2-carboxylic acid [1-(2-fluoro-4-methanesulfonylamino-5-methyl-phenyl)-ethyl]-amide]
